We go through four molecules from patent US9176153B2, “Prevention therapy and prognosis/monitoring in sepsis and septic shock” (NEDERLANDSE ORGANISATIE VOOR […] ONDERZOEK TNO, priority 2002, dated 2015).

One experiment has as its system LPS Re595. The experiment is described as follows: liver uptake and serum residence of 125I-LPS after intravenous injection in mice. The following applies: for effect on behavior of 125I-LPS after intravenous injection (liver uptake, residence in blood): 125I-LPS Re595 10 μg/kg, LPS:apoCI 1:0.2 to 1:16, LPS:albumin 1:16. The class given is in vivo, Wild-type (C57B1/6) mice. The protocol:
Wild-type (C57B1/6) mice were anesthetized and, via the lower vena cava, injected intravenously with radioactively (^125I) labeled LPS Re595 (10 μg/kg) without, and with, respectively, apoCI (molar ratio LPS:apoCI=1:0.2, 1:0.5, 1:1 and 1:16) and bovine serum albumin (molar ratio LPS:albumin=1:16). Blood samples and bits of liver tissue were taken at t=2, 5, 10, 20 and 30 minutes after injection. After this, the mice were sacrificed. Next, the amounts of LPS in the blood sera and liver samples were quantified on the basis of the amount of radioactive radiation. Also, a serum sample was taken 30 minutes after injection of LPS:apoCI (1:1) and subjected to agarose gel electrophoresis to study the distribution of the ^125I-LPS over the various lipoproteins. Lipoprotein lipids were visualized with the aid of Sudan Black, and ^125I-LPS by means of autoradiography. In FIGS. 6A and 6B the amounts of ^125I-LPS in the liver and the blood serum, respectively, are plotted as a percentage of the injected dose against time (n=3.+−.SEM). […] Already at a molar ratio of 1:1, the uptake of LPS by the liver was reduced 8-fold. The strong binding of apoCI to LPS (see Example 2) therefore proves to be relevant in the blood too.

Experiment [1] concerns FITC-LPS Re595. Nature of the experiment: monomerization of FITC-LPS by pure apolipoprotein (fluorescence dequenching). It is filed as biochemical. The note with it: FITC-LPS Re595 100 ng, molar ratios 1:1, 1:5, 1:10 and 1:20. The protocol:
Finally, the effect of apoCI on the monomerization rate of LPS was studied. […] FITC-LPS Re595 (100 ng) was incubated with pure human apoCI (in molar ratios 1:1, 1:5, 1:10 and 1:20), after which the occurrence of fluorescence was followed in time with the aid of a fluorimeter.

For experiment [2], the system named is FITC-LPS Re595. Nature of the experiment: monomerization of FITC-LPS by murine plasma with different apoCI levels. It is filed as biochemical, mouse. The protocol:
We have determined the effect of the apoCI level in murine plasma on monomerization of FITC-LPS as described in Example 2. For that purpose, FITC-LPS was incubated with plasma that had been isolated from wild-type mice, genetically modified mice which are deficient for apoCI (apocl^−/−), or genetically modified mice which express the human apoCI hemizygote (APOC1^+/0) or homozygote (APOC1^+/+).
FITC-LPS Re595 (100 ng) was incubated with plasma (0.125%) isolated from the blood of the various mouse types, after which the occurrence of fluorescence was followed in time with the aid of a fluorimeter. The expression of human apoCI in mouse plasma led to an apoCI-dose dependent increase of the FITC-LPS monomerization, which was 32% at a maximum. […] This indicates not only that mouse-apoCI, like human apoCI, is capable of monomerizing LPS, but especially also that the endogenous presence of apoCI contributes for a considerable part to the total LPS-disaggregated capacity of mouse plasma.

In experiment [3] the test system is LPS Re595 (Salmonella minnesota). Nature of the experiment: agarose gel electrophoresis of 125I-LPS incubated with human apoCI. The class given is binding. How it is done:
LPS Re595 (Salmonella minnesota) was radioactively labeled with ^125I as described (Rensen, 1997) and incubated (30 min at 37° C.) with increasing amounts of human apoCI which has been isolated from human blood (Tournier, 1984). Next, the incubation volumes were transferred to an agarose gel (position Rf 0), after which, for 2 hours, an electrophoretic field was applied (so-called agarose gel electrophoresis). After electrophoresis, the ^125I-LPS was visualized by means of autoradiography. Through its negative charge, LPS tends to migrate to the positive pole (anode); which, however, is prevented in that the LPS forms large micellary structures that cannot pass the relatively small pores formed by the agarose matrix.
Also, the effect of increasing amounts of LPS on the migration of a fixed amount of apoCI was determined. For that purpose, the apoCI was visualized in the gel after electrophoresis by means of immunoblotting with a horseradish peroxidase-conjugated antibody directed against human apoCI (Academy Bio-Medical Company, Houston, USA; cat. 31H-G1b).

The next experiment relates to LPS. The experiment is described as follows: LPS-induced inhibition of apolipoprotein-specific sandwich ELISA. The class given is binding. How it is done:
The apoCI level in blood plasma can be established in any suitable manner. Preferably, the apoCI level is determined with a sandwich Enzyme-Linked ImmunoSorbent Assay (sandwich ELISA). To this end, for instance 96-wells plates (medium-binding plates; Costar) are coated with a (10,000-fold dilution of a) polyclonal antibody to human apoCI generated in goat (goat-anti human apoCI; Academy Bio-Medical Company, Houston, USA; cat. 31A-Glb). Next, human blood plasma or serum is added (100,000-300,000-fold dilution), whereby the apoCI present therein is quantitatively bound by this primary antibody. […] The HRP is subsequently quantified by means of a stain reaction with 3,3′,5,5′-tetramethylbenzidine (TMB) as substrate, and the stain intensity is compared with a calibration curve which is constructed with pure human apoCI (Labconsult, Brussels, Belgium; cat. A50366H).
A particular amount of human apoCI (0.75 ng/mL) was incubated with LPS in increasing molar ratios, after which the apoCI concentration was determined with the aid of the human apoCI-specific sandwich ELISA as described above under F. The LPS-induced inhibition of the stain reaction from which the apoCI concentration is read, was determined as a percentage of the maximum staining in the absence of LPS (n=2.+−.SEM) (FIG. 3). […]
For orientation: An ELISA detects its analyte on a solid surface through an enzyme-linked reagent.

The next experiment has as its system TNFα. Nature of the experiment: LPS-induced TNFα response in mice. The class given is in vivo, Wild-type (C57B1/6) mice. The protocol: Wild-type (C57B1/6) mice were injected, by way of the tail vein, with LPS Re595 (25 μg/kg) without, and with, apoCI (molar ratio LPS:apoCI=1:5). Blood samples were taken at t=0, 30, 60, 90, 120 and 180 minutes after injection. In the samples, subsequently, the amount of TNFα was quantified with the aid of a mouse-TNFα specific ELISA according to the accompanying instructions (Immunosource, Halle, Belgium, cat. no. BMS607MST), and the amounts of TNFα in the blood plasma were subsequently plotted against time.

Entries after “also recorded” stand apart in the source; their conditions may differ.

For the molecule “Bovine serum albumin: bovine serum albumin used as control protein [reference compound]”, the “effect on behavior of 125I-LPS after intravenous injection (liver uptake, residence in blood)” value in the experiment on LPS Re595 is listed as “not effective”.
Consider “TPDVSSALDKLKEFGNTLEDKARELISRIKQSELSAKMREWFSETFQKVKEKLKIDS (human apoCI peptide) [human apolipoprotein CI, 57 amino acids, 6.6 kDa, purified from human blood]”, for which the “increase in FITC fluorescence (monomerization of LPS)” value was “dose-dependent monomerization of LPS micelles” in the experiment on FITC-LPS Re595 [1] and “increase strongly in a dose-dependent manner” with FITC-LPS Re595 [1] (listed as ApoCI). Further, in the experiment with FITC-LPS Re595 [2] (plasma 0.125% of APOC1+/0 or APOC1+/+ mice versus wild-type, maximum), the “increase of the FITC-LPS monomerization by expression of human apoCI in mouse plasma” value is given as 32%. Further, the “migration of 125I-LPS in agarose gel” value in experiment [3] (0.5 molecules of apoCI with respect to 1 molecule of LPS, incubated 30 min at 37° C., 2 hours electrophoresis) is “complete migration of the LPS to the positive pole”. Further, the “migration of apoCI in agarose gel on binding of LPS” value in experiment [3] (fixed amount of apoCI, increasing amounts of LPS, immunoblotting) is given as “accelerated migration of apoCI to the positive pole”. Further, the “LPS-induced inhibition of the staining reaction of apoCI-specific sandwich ELISA” value in the experiment with LPS (200-fold molar excess of LPS to apoCI, apoCI 0.75 ng/mL, percentage of maximum staining in absence of LPS) is “more than 40%”. Further, the “increase of the LPS-induced TNF level versus LPS alone” value with TNFα (LPS Re595 25 μg/kg with apoCI, molar ratio 1:5) is recorded as “fourfold”. In the experiment with TNFα (LPS Re595 25 μg/kg with apoCI, molar ratio LPS:apoCI 1:5, tail vein, versus 2.8 for LPS alone), the “LPS-induced TNF level in blood plasma” value was 10.8 ng/mL. Also, the “TNFα induction by apoCI without LPS” value in the experiment with TNFα (equal amount of apoCI without LPS) is on record as “no TNFα inducing effect”. The “effect on behavior of 125I-LPS after intravenous injection (liver uptake, residence in blood)” value with LPS Re595 was “inhibit the decrease of LPS from the blood strongly and dose-dependently; also recorded: strongly reducing the uptake of LPS by the liver”. For the same molecule, in the experiment with LPS Re595 (molar ratio LPS:apoCI 1:1, 125I-LPS Re595 10 μg/kg intravenously), the “reduction of uptake of LPS by the liver” value was found to be 8 fold.
“apoCIII: apolipoprotein CIII, 79 amino acids, two amphipatic helices, comparable size and structure to apoCI [reference compound]”: in the experiment on FITC-LPS Re595 [1], the “increase in FITC fluorescence (monomerization of LPS)” value is “hardly effective”. In addition, the “effect of LPS on quantification with apoCIII-specific sandwich ELISA” value with LPS (comparable apoCIII-specific sandwich ELISA) is reported as “no effect”.

B1: APDLSGTLESIPDKLKEFGNTLEDKARAAIEHIKQKEILTKTRAWFSEAFGKVKEKLKTTFS (protein)
chain: APDLSGTLESIPDKLKEFGNTLEDKARAAIEHIKQKEILTKTRAWFSEAFGKVKEKLKTTFS
modifications: Muss p.; SITE (1)..(62) primary amino acid sequence of apoCI
notes: endogenous mouse apolipoprotein CI in murine plasma
On to B1, for which the “reduction of monomerization of FITC-LPS owing to absence of mouse-apoCI” value in the experiment on FITC-LPS Re595 [2] (plasma 0.125% of apoc1-/- mice versus wild-type) was 60%.
